Entries after “also recorded” stand apart in the source; their conditions may differ.
Assays:
GST-tagged SIRT6 [1] = biological target: T1, GST-tagged SIRT6 (Homo sapiens, UniProt Q8N6T7); assay: HPLC-based SIRT6 deacetylation assay with H3K9Ac peptide;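 for all read-outs here: recombinant SIRT6 incubated 30 min at 37 °C with 500 µM NAD+ and H3K9Ac peptide, deacetylated H3K9 quantified by reversed-phase HPLC-MRM peak area versus DMSO control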; type: biochemical; conditions: for Inhibition % 10 µM / inhibition at 10 µM: 10 µM compound; for Inhibition % 10 µM / Activation 100 µM / Inhibition % 100 µM / inhibition at 10 µM / inhibition at 100 µM: mean ± SD, n=3; for Activation 100 µM / Inhibition % 100 µM / inhibition at 100 µM: 100 µM compound; for Activation 100 µM: 40 µM H3K9Ac, fold per Fig. 2C legend
T1 construct: made in house; host or cells: E. coli BL21(DE3)-pRARE
T1 sequence (Q8N6T7 whole entry): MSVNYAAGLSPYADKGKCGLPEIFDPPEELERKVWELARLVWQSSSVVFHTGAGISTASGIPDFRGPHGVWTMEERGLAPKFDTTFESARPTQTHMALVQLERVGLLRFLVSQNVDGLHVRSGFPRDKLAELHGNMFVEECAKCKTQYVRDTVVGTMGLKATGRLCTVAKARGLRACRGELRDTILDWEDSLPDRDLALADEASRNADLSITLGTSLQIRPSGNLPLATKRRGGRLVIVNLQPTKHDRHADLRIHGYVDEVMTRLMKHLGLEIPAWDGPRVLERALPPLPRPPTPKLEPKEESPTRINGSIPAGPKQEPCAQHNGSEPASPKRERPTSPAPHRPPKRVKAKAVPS

GST-tagged SIRT6 [2] = biological target: T1, GST-tagged SIRT6; parameters: method as in PMID 26607666; conditions: cited from earlier work
GST-SIRT6 = biological target: T2, GST-SIRT6 (Homo sapiens, UniProt Q8N6T7); assay: In vitro SIRT6 deacetylation of core histones, western blot of H3K9Ac; type: biochemical; conditions: 100 µM
T2 construct: made in house; host or cells: E. coli BL21(DE3)-pRARE
T2 sequence (Q8N6T7 whole entry): as above
Experimental: Western blot analysis was carried out as previously described, with slight modifications. […] The reaction was stopped with Laemmli (sample buffer) and separated by SDS-PAGE using 10–20% gradient gels and transferred onto polyvinylidene difluoride (PVDF) membranes. H3K9 acetylation was detected with rabbit anti-acetyl H3K9 antibody followed by anti-rabbit HRP-conjugated secondary antibody. Membranes were stripped and re-probed with rabbit anti-histone H3 antibody. Chemiluminescent signal detection and image acquisition were carried out using ECL prime western blotting detection reagents.
3 μg/well of a purified recombinant GST‐SIRT6 protein, 1.25 μg purified whole chicken core histones with 500 μM NAD+ in 25 mM Tris‐HCl, pH 8.0. Analysis were repeated three times and one representative cropped blot is shown (A). Uncropped blots probed with H3K9Ac (B), H3 (C). […]

[3] = test system: SIRT6 protein expression in Caco-2 cells; assay: Immunoblotting of SIRT6 protein expression in Caco-2 cells; type: cell-based, human; conditions: 24 h; for SIRT6 expression, in words: Caco-2 cells
Experimental: (§1) After the treatment, conditions of the cells were evaluated under a light microscope (Fig. 3A). […] Full-length blots are presented in Supplementary Fig. S4.
(§2) (B) Immunoblotting analysis of SIRT6 protein. SIRT6 protein levels (MW: 39 kDa) were normalized relative to α-tubulin (MW: 50 kDa) and quantification is represented as fold change respect to control. Values are expressed as mean ± SEM of four independent experiment (*p values < 0.05; one way-ANOVA). SIRT6 expression were determined by immunoblotting (B).
(§3) Caco-2 cells (passage 30–40) were cultured in DMEM with 10% FBS, 1% nonessential amino acids, 2 mM L-glutamine, 100 units/ml of penicillin, and 100 µg/ml of streptomycin at +37 °C. Cells were cultured 14 days before the treatments. For the immunoblotting, cells were seeded on 24-well plates (1 × 10^5 cells/well).
(§4) After treatment, medium was discarded and cells were washed twice with ice-cold PBS. RIPA buffer was added to the cells and incubated for 30 min. Cell suspensions were collected and centrifuged (13,000 rpm, 20 min +4 °C). Supernatant containing the proteins were aliquoted and stored at −80 °C. Sample protein concentrations were measured with Bradford Assay (Bio-Rad DC^TM Protein Assay).
Immunoblotting was performed according to standard protocols from four independent experiments. Briefly, protein samples (18 µg/sample) were separated by SDS-PAGE using 10–20% gradient gels and transferred onto PVDF membranes. Membranes were blocked in 3% non-fat dry milk and further incubated with primary rabbit anti- FoxO3α (1:2000), anti-GLUT1 (1:1000), anti-H3, anti-SIRT6 (1:2000), anti-Twist (1:2000) anti-α-tubulin (1:8000) antibodies overnight at +4 °C. HRP-conjugated secondary antibodies (goat anti-rabbit, goat anti-mouse) were incubated for 1 hour at room temperature and proteins were detected using ELC prime western blotting system. Densitometric analysis of protein bands was carried out using ImageJ 1.32 software and the data were normalized by α-tubulin (loading control).

[4] = test system: FoxO3α protein expression in Caco-2 cells; assay: Immunoblotting of FoxO3α protein expression in Caco-2 cells; type: cell-based, human; conditions: Caco-2, 24 h, 50 and 100 µM
Experimental: as §1
(§5) FoxO3α, Twist1 and GLUT1 expression were quantified and normalised with α-tubulin or H3. Data represent the mean ± SEM of three independent experiments,*p < 0.05, **p < 0.01 and ***p < 0.001 between the indicated groups.
as §3, §4
(§6) Immunoblotting was performed according to standard protocols from four independent experiments. […] HRP-conjugated secondary antibodies (goat anti-rabbit, goat anti-mouse) were incubated for 1 hour at room temperature and proteins were detected using ELC prime western blotting system. […]

[5] = test system: Twist1 protein expression in Caco-2 cells; assay: Immunoblotting of Twist1 protein expression in Caco-2 cells; type: cell-based, human; conditions: Caco-2, 24 h, 100 µM
Experimental: as §1, §5, §3, §4, §6

[6] = test system: GLUT1 protein expression in Caco-2 cells; assay: Immunoblotting of GLUT1 protein expression in Caco-2 cells; type: cell-based, human; conditions: Caco-2, 24 h, 100 µM
Experimental: as §1, §5, §3, §4, §6

Caco-2 cells = assay: Light microscopy of Caco-2 cells after treatment; type: cell-based, human; conditions: 200 µM
Experimental: as §1, §2, §3

Row | Structure (SMILES) | SIRT6 inhibition, in words (GST-tagged SIRT6 [1]) | Activation 100 µM (GST-tagged SIRT6 [1]) [fold] | inhibition at 10 µM (GST-tagged SIRT6 [1]) [%] | inhibition at 100 µM (GST-tagged SIRT6 [1]) [%] | also measured
1 | O=C1C[C@@H](c2ccc(O)c(O)c2)Oc2cc(O)cc(O)c21 [Compound 11, Eriodictoyl] | did not improve the inhibitory activity towards SIRT6 compared to compound 1 | 1.1 |  |  | Inhibition % 10 µM (GST-tagged SIRT6 [1]): 19 ± 2.2%; Inhibition % 100 µM (GST-tagged SIRT6 [1]): 27 ± 1.5%
2 | O=C(O[C@@H]1Cc2c(O)cc(O)cc2O[C@H]1c1cc(O)c(O)c(O)c1)c1cc(O)c(O)c(O)c1 [Compound 5, (−)-Gallocatechin gallate] |  | 0.01 ± 0.01 | 79 ± 0.5 |  | 
3 | Oc1cc(O)c2c(c1)O[C@H](c1ccc(O)c(O)c1)[C@@H](O)C2 [Compound 1, (+)-Catechin] |  | 0.8 ± 0.02 | 17 ± 1.6 | 26 | 
4 | Oc1cc(O)c2c(c1)O[C@H](c1ccc(O)c(O)c1)[C@H](O)C2 [Compound 6, (−)-Epicatechin] |  |  |  | 10 ± 0.1 | 
5 | O=c1c(O)c(-c2ccc(O)c(O)c2)oc2cc(O)cc(O)c12 [Compound 15, Quercetin] | inhibitors as well as activators depending on the concentration | 1.5 ± 0.1 | 27 ± 0.4 | 40 ± 3 | Modulation of SIRT6 deacetylation activity, in words (GST-tagged SIRT6 [2]): increase SIRT6 deacetylation activity at high concentrations, while also inhibiting deacetylation activity at low concentrations
6 | O=c1c(O)c(-c2ccc(O)cc2)oc2cc(O)cc(O)c12 [Compound 14, Kaempferol] | inhibitors as well as activators depending on the concentration | 2.2 ± 0.1 | 40 ± 0.8 | 24 ± 1.7 | Maximal activation (fold) (GST-tagged SIRT6 [1]; at saturating concentrations of compound): 3.0 fold
7 | O=C(O[C@@H]1Cc2c(O)cc(O)cc2O[C@@H]1c1ccc(O)c(O)c1)c1cc(O)c(O)c(O)c1 [Compound 8, (−)-Epicatechin gallate] |  | 0.1 ± 0.01 | 15 ± 0.9 | 60 ± 3.6 | 
8 | NC(=O)c1cccnc1 [Compound 21, Nicotinamide, reference compound] |  |  |  |  | inhibition at 1000 µM (GST-tagged SIRT6 [1]): 58 ± 1.3%
9 | O=C(O[C@@H]1Cc2c(O)cc(O)cc2O[C@@H]1c1cc(O)c(O)c(O)c1)c1cc(O)c(O)c(O)c1 [Compound 9, (−)-Epigallocatechin gallate] | moderate inhibition | 0.8 ± 0.04 | 10 ± 1.4 | 42 ± 1.9 | 
10 | Oc1cc(O)c2c(c1)O[C@@H](c1cc(O)c(O)c(O)c1)[C@H](O)C2 [Compound 3, (−)-Gallocatechin] | weak inhibitor | 0.2 ± 0.01 | 17 ± 0.8 | 23 ± 1 | 
11 | O=c1cc(-c2ccc(O)c(O)c2)oc2cc(O)cc(O)c12 [Compound 13, Luteolin] | weak inhibitor | 1.2 ± 0.04 | 24 ± 1.8 | 29 ± 0.3 | Modulation of SIRT6 deacetylation activity, in words (GST-tagged SIRT6 [2]): increase SIRT6 deacetylation activity at high concentrations, while also inhibiting deacetylation activity at low concentrations
12 | O=C1C[C@@H](c2ccc(O)cc2)Oc2cc(O)cc(O)c21 [Compound 10, Naringenin] | did not improve the inhibitory activity towards SIRT6 compared to compound 1 | 1.1 ± 0.05 | 8.3 ± 1.1 | 23 ± 1.5 | 
13 | O=c1cc(-c2ccc(O)cc2)oc2cc(O)cc(O)c12 [Compound 12, Apigenin] |  | 0.9 ± 0.01 |  | 1 ± 0.6 | SIRT6 activation, in words (GST-tagged SIRT6 [1]): inactive
14 | Oc1cc(O)c2c(c1)O[C@@H](c1ccc(O)c(O)c1)[C@H](O)C2 [Compound 2, (−)-Catechin] |  | 0.4 ± 0.04 | 25 ± 0.8 | 54 | 
15 | O=C(O[C@@H]1Cc2c(O)cc(O)cc2O[C@H]1c1ccc(O)c(O)c1)c1cc(O)c(O)c(O)c1 [Compound 4, (−)-Catechin gallate] |  | 0.1 ± 0.03 | 62 ± 0.7 |  | 

The next lines start with results.

Row | SIRT6 inhibition, in words (GST-tagged SIRT6 [1]) | Activation 100 µM (GST-tagged SIRT6 [1]) [fold] | inhibition at 10 µM (GST-tagged SIRT6 [1]) [%] | inhibition at 100 µM (GST-tagged SIRT6 [1]) [%] | Structure (SMILES) | also measured
16 | inactive | 0.9 ± 0.6 |  |  | COc1cc(/C=C/C(=O)O)ccc1O [Compound 26, trans-Ferulic acid] | Inhibition % 100 µM (GST-tagged SIRT6 [1]): -8.6 ± 0.3%
17 |  | 1.4 ± 0.04 |  | 14 ± 1.2 | O=C(O)c1cc(O)c(O)c(O)c1 [Compound 22, Gallic Acid] | SIRT6 activation, in words (GST-tagged SIRT6 [1]): increased slightly SIRT6 activation
18 |  |  |  | 0 | O=c1c(O)c(-c2cc(O)c(O)c(O)c2)oc2cc(O)cc(O)c12 [Compound 16, Myricetin] | 
19 | weak SIRT6 inhibitors | 1.3 ± 0.02 |  |  | COc1ccc(-c2coc3cc(O)cc(O)c3c2=O)cc1 [Compound 20, Biochanin A] | SIRT6 activation, in words (GST-tagged SIRT6 [1]): able to activate deacetylation of SIRT6; Inhibition % 10 µM (GST-tagged SIRT6 [1]): 13 ± 0.5%; Inhibition % 100 µM (GST-tagged SIRT6 [1]): 24 ± 0.9%
20 |  | 2.6 ± 0.1 |  | 0 | Oc1cc(O)c2cc(O)c(-c3ccc(O)c(O)c3)[o+]c2c1 [Compound 17, Cyanidin] | SIRT6 activation, in words (GST-tagged SIRT6 [1]): increase in deacetylase activity; Increase of deacetylation activity (H3K9Ac on core histones) (GST-SIRT6): ~2.5 fold; SIRT6 expression up-regulation ([3]; Caco-2, 50–100 µM, relative to control): 3.5 fold; SIRT6 expression, in words [3]: effective in a dose-dependent manner; SIRT6 expression, in words ([3]; listed as Cyanidin): significantly increased SIRT6 expression; FoxO3α protein expression, in words [4]: enhanced the protein expression of FOXO3 significantly; Twist1 expression, in words [5]: downregulated; GLUT1 expression, in words [6]: downregulated; Precipitation in cell culture medium (Caco-2 cells): precipitated out of solution
21 | inactive | 1.0 ± 0.01 |  | -5.9 ± 0.2 | O=C(O)/C=C/c1ccc(O)c(O)c1 [Compound 25, Caffeic Acid] | 
22 |  | 2.2 ± 0.1 |  | 0 | Oc1cc(O)c2cc(O)c(-c3cc(O)c(O)c(O)c3)[o+]c2c1 [Compound 18, Delphinidin] | SIRT6 activation, in words (GST-tagged SIRT6 [1]): increase in deacetylase activity; also recorded: weaker activity against SIRT6 than compound 17; Increase of deacetylation activity (H3K9Ac on core histones) (GST-SIRT6): ~2.5 fold
23 | inactive | 0.6 ± 0.2 |  |  | COc1cc(/C=C/C(=O)O)cc(OC)c1O [Compound 27, Sinapic Acid] | Inhibition % 100 µM (GST-tagged SIRT6 [1]): 8.0 ± 0.9%
24 | weak SIRT6 inhibitors | 0.7 ± 0.2 | 1.8 ± 0.3 | 9.6 ± 1.4 | O=c1c(-c2ccc(O)cc2)coc2cc(O)cc(O)c12 [Compound 19, Genistein] | 
25 | inactive | 0.6 ± 0.1 |  | 8.5 ± 1.2 | O=C(O)C=Cc1ccc(O)cc1 [Compound 24, p-Coumaric acid] | 
26 |  | 1.8 ± 0.05 |  | -12 ± 1.1 | COc1cc(CCC(=O)O)ccc1O [Compound 23, 3-(4-Hydroxy-3-methoxyphenyl)propionic acid] | SIRT6 activation, in words (GST-tagged SIRT6 [1]): increased slightly SIRT6 activation

— publication PMC5841289, “Natural polyphenols as sirtuin 6 modulators” (Scientific Reports, 2018)
